Experimental data published in patent US12064516B2, “Pharmaceutical formulations and uses thereof” (Aldeyra Therapeutics, Inc., priority 2020, dated 2024).
Like-named read-outs stand apart in the source and are kept apart here.

Assay: Pharmacokinetics of compound I-1 in the dog by intravenous, oral gavage and oral capsule routes
Format: in vivo, beagle dogs
Settings: male, beagle, dog, plasma; for concentration at 4 h / concentration at 8 h / concentration at 12 h / concentration at 0.25 h / concentration at 0.5 h / concentration at 1 h / concentration at 2 h: read-out: Concentration at time point; for bioavailability: read-out: BioA (bioavailability)
Protocol: A pharmacokinetic study was conducted to compare the bioavailability of capsule and suspension oral formulations vs. an intravenous formulations.
The standard curve was prepared from 1 to 2,000 ng/mL. QC samples were prepared at […]. Dilution QCs were prepared at 10-fold dilution. Deuterated (d6) I-1 (compound 1-7) was used as an internal standard. A 50 μL aliquot of sample was added to 150 μL of cold internal standard in acetonitrile to effect protein precipitation. The resulting supernatants were analyzed by LCMS. Diluted sample data was utilized only for over-the-curve results.
Briefly, 9 male non-naïve beagle dogs were assigned in groups of 3 to 3 dose groups. Group 1 was dosed 3 mg/kg by the intravenous route in a vehicle of 20% sulfobutylether-β-cyclodextrin (SBECD). Group 2 was dosed 10 mg/kg by the oral gavage route in a vehicle of 0.5% methylcellulose (MC). Group 3 was dosed with 100 mg capsules.
The I-1 100 mg capsules are manufactured as a non-sterile spray dried, granulated powder blend. The blend is then filled into capsules for oral delivery. The capsules are packaged in high-density polyethylene bottles. The quantitative composition of the I-1 100 mg capsule is presented above in Table B.
Procedure: (PO) gavage: formulations will be administered via a rubber oral gavage tube followed by a 10 mL flush with drinking water. (PO) tablet: tablets will be administered orally by placing the tablet in the back of the throat followed by a 10 mL flush with water.
Frequency: Pre-dose, 5, 15, 30 min, 1, 2, 4, 8, and 12 hrs post-dose (IV); pre-dose, 15, 30 min, 1, 2, 4, 8, and 12 hrs post-dose (PO by gavage and PO by capsule).
Blood collection: each blood sample will be collected from the dog's jugular vein or other accessible vein via direct venepuncture, placed into a pre-labeled tube containing K2EDTA and kept on ice until centrifugation.
Plasma preparation and storage: Certifuged at 4 C at 3,000× for 5 mm. Stored in a freezer until analysed.
Pharmacokinetics package PKSolver2.0™ has been validated against WinNonLin™ as a tool for non-GLP studies and was used to process the pharmacokinetic data.
For each route, the average data were processed with non-compartmental, one compartment, and two compartment models. The models were assessed for goodness of fit and the accuracy of the model to assess the biphasic data, with either a) no weighting, b) 1/concentration observed, or c) 1/concentration observed squared. 1/concentration predicted, and 1/concentration predicted squared weightings were also assessed for best fit. […] The zeros were averaged with the 71.5 value for a resulting average of 23.8. For the In Group 2 (PO Gavage) subject 3 experienced 30 mL of emesis, so the dose assigned to that subject was 7.46. In all cases, the subjects were modelled individually, and the individual PK parameters were averaged to provide final parameters.
For group 1 (intravenous) the final model selected was a two compartment model with 1/concentration observed squared weighting.
For group 2 (oral gavage) the final model was a two compartment extravascular model with 1/concentration predicted squared weighting.
For group 3 (oral capsule) the final model was a one compartment extravascular model with a lag time and no weighting. […] The body weight of each animal was used to assign a mg/kg dose to each individual. Subject 1 was dosed at 7.69 mg/kg. Subject 2 was 6.94 mg/kg, and Subject 3 was 6.99 mg/kg.

[1] = oral, 7 mg/kg, Group 3: PO Capsule 7 mg/kg, Subject 1
[2] = oral, 7 mg/kg, Group 3: PO Capsule 7 mg/kg, Subject 2
[3] = oral, 7 mg/kg, Group 3: PO Capsule 7 mg/kg, Subject 3
[4] = oral, 7 mg/kg, Group 3: PO Capsule 7 mg/kg, Average
[5] = oral, 7.2 mg/kg, 100 mg Capsule, average dose 7.2 mg/kg, Average
[6] = po, 7.2 mg/kg, 100 mg Capsule, average dose 7.2 mg/kg, Average
[7] = po, 7.2 mg/kg, 100 mg Capsule, average dose 7.2 mg/kg, Subj1
[8] = po, 7.2 mg/kg, 100 mg Capsule, average dose 7.2 mg/kg, Subj2
[9] = po, 7.2 mg/kg, 100 mg Capsule, average dose 7.2 mg/kg, Subj3
[10] = po, 10 mg/kg, Group 2: PO Gavage 10 mg/kg, Average
[11] = po, 10 mg/kg, Group 2: PO Gavage 10 mg/kg, Subject 1
[12] = po, 10 mg/kg, Group 2: PO Gavage 10 mg/kg, Subject 2
[13] = po, 10 mg/kg, Group 2: PO Gavage 10 mg/kg, Subject 3
[14] = po, 10 mg/kg, Oral Gavage 0.5% Methylcellulose 10 mg/kg, Average
[15] = po, 10 mg/kg, Oral Gavage 0.5% Methylcellulose 10 mg/kg, Subj1
[16] = po, 10 mg/kg, Oral Gavage 0.5% Methylcellulose 10 mg/kg, Subj2
[17] = po, 10 mg/kg, Oral Gavage 0.5% Methylcellulose 10 mg/kg, Subj3

CC(C)(O)c1nc2ccccc2cc1N [I-1]
concentration at 4 h [1]: 1070 ng/mL | concentration at 4 h [2]: 736 ng/mL | concentration at 4 h [3]: 1150 ng/mL | concentration at 8 h [4]: 223 ng/mL | concentration at 8 h [1]: 195 ng/mL | concentration at 8 h [2]: 147 ng/mL | concentration at 8 h [3]: 327 ng/mL | concentration at 12 h [4]: 94.5 ng/mL | concentration at 12 h [1]: 58.7 ng/mL | concentration at 12 h [2]: 58 ng/mL | concentration at 12 h [3]: 167 ng/mL | Tmax [5]: 2.37 h | bioavailability [5]: 83% | concentration at 0.25 h (oral, 100 mg, Group 3: PO Capsule 7 mg/kg, Average): 23.8 ng/mL | concentration at 0.25 h (oral, 100 mg, Group 3: PO Capsule 7 mg/kg, Subject 2): 71.5 ng/mL | AUC(0-inf) [6]: 8170 ng·h/mL | AUC(0-t) [6]: 8080 ng·h/mL | Cmax [6]: 1700 ng/mL | half-life [6]: 1.33 h | AUC(0-inf) [7]: 7350 ng·h/mL | AUC(0-t) [7]: 7240 ng·h/mL | Cmax [7]: 1390 ng/mL | Tmax [7]: 2.57 h | half-life [7]: 1.38 h | AUC(0-inf) [8]: 5610 ng·h/mL | AUC(0-t) [8]: 5490 ng·h/mL | Cmax [8]: 986 ng/mL | Tmax [8]: 2.37 h | half-life [8]: 1.49 h | AUC(0-inf) [9]: 11600 ng·h/mL | AUC(0-t) [9]: 11500 ng·h/mL | Cmax [9]: 2730 ng/mL | Tmax [9]: 2.16 h | half-life [9]: 1.1 h | concentration at 0.25 h [10]: 2480 ng/mL | concentration at 0.25 h [11]: 3360 ng/mL | concentration at 0.25 h [12]: 2760 ng/mL | concentration at 0.25 h [13]: 1310 ng/mL | concentration at 0.5 h [10]: 4320 ng/mL | concentration at 0.5 h [11]: 5400 ng/mL | concentration at 0.5 h [12]: 4290 ng/mL | concentration at 0.5 h [13]: 3260 ng/mL | concentration at 1 h [10]: 2700 ng/mL | concentration at 1 h [11]: 2970 ng/mL | concentration at 1 h [12]: 2610 ng/mL | concentration at 1 h [13]: 2520 ng/mL | concentration at 2 h [10]: 1420 ng/mL | concentration at 2 h [11]: 1890 ng/mL | concentration at 2 h [12]: 1470 ng/mL | concentration at 2 h [13]: 908 ng/mL | concentration at 4 h [10]: 787 ng/mL | concentration at 4 h [11]: 909 ng/mL | concentration at 4 h [12]: 909 ng/mL | concentration at 4 h [13]: 541 ng/mL | concentration at 8 h [10]: 157 ng/mL | concentration at 8 h [11]: 131 ng/mL | concentration at 8 h [12]: 233 ng/mL | concentration at 8 h [13]: 108 ng/mL | concentration at 12 h [10]: 45.1 ng/mL | concentration at 12 h [11]: 28.1 ng/mL | concentration at 12 h [12]: 59.1 ng/mL | concentration at 12 h [13]: 48.1 ng/mL | AUC(0-inf) [14]: 9550 ng·h/mL | AUC(0-t) [14]: 9360 ng·h/mL | Cmax [14]: 3560 ng/mL | Tmax [14]: 0.518 h | half-life [14]: 3.02 h | bioavailability [14]: 75% | AUC(0-inf) [15]: 11200 ng·h/mL | AUC(0-t) [15]: 11100 ng·h/mL | Cmax [15]: 4350 ng/mL | Tmax [15]: 0.459 h | half-life [15]: 2.85 h | AUC(0-inf) [16]: 10100 ng·h/mL | AUC(0-t) [16]: 9910 ng·h/mL | Cmax [16]: 3670 ng/mL | Tmax [16]: 0.46 h | half-life [16]: 2.13 h | AUC(0-inf) [17]: 7330 ng·h/mL | AUC(0-t) [17]: 7050 ng·h/mL | Cmax [17]: 2650 ng/mL | Tmax [17]: 0.635 h | half-life [17]: 4.08 h
